Measured values reported in patent US20150307938A1, “METHOD TO IDENTIFY A NOVEL CLASS OF IMMUNOLOGIC ADJUVANTS” (Lancell, L.L.C., priority 2011, published 2015).

Experiment: Estimate of maximum absorbed dose from transdermal transport rate of DBP on human skin in vivo
Details: from known transdermal transport rate on human skin in vivo

For `CCCCOC(=O)c1ccccc1C(=O)OCCCC` [DBP, dibutylphthalate], the “maximum absorbed dose from topical use as an adjuvant, vs LOEL in pregnant rats” value was “five logs lower than the LOEL” and the “maximum absorbed dose from topical use as an adjuvant, vs amount ingested daily” value was “no higher than the amount we ingest daily”.
